The source of these data is patent US20070128217A1 (priority 2003, published 2007).

Assay [1] relates to antibodies in sera from SARS patients (sera 1a, 1b, 2, 6, 37, 62, London, SARS-yellow, SARS-green). In kind it is binding, human. On the set-up: Binding of serum 6 to linear peptides of protein X1 of SARS-CoV Urbani / Binding of serum 37 to linear peptides of protein X1 of SARS-CoV Urbani / Binding of serum 6 to looped/cyclic peptide (PEPSCAN-ELISA) / Binding of serum 37 to looped/cyclic peptide (PEPSCAN-ELISA) / Binding of serum 37 to looped/cyclic peptides of protein X1 of SARS-CoV Urbani / Binding of serum 6 to linear peptides of protein X2 / Binding of serum 37 to linear peptides of protein X2 / Binding of serum 37 to looped/cyclic peptides of protein X2 of SARS-CoV Urbani / Binding of serum 6 to linear peptides of protein M of SARS-CoV Urbani / Binding of serum 37 to linear peptides of protein M of SARS-CoV Urbani / Binding of serum 6 to looped/cyclic peptides of protein M of SARS-CoV Urbani / Binding of serum 37 to looped/cyclic peptides of protein M of SARS-CoV Urbani / Binding of serum 6 to linear peptides of protein X3 of SARS-CoV Urbani / Binding of serum 37 to linear peptides of protein X3 of SARS-CoV Urbani / Binding of serum 37 to looped/cyclic peptides of protein X3 of SARS-CoV Urbani / Binding of serum 6 to linear peptides of protein X4 of SARS-CoV Urbani / Binding of serum 37 to linear peptides of protein X4 of SARS-CoV Urbani / Binding of serum 37 to looped/cyclic peptides of protein X4 of SARS-CoV Urbani / Binding of serum 6 to linear peptides of protein X5 of SARS-CoV Urbani / Binding of serum 37 to linear peptides of protein X5 of SARS-CoV Urbani / Binding of serum 37 to looped/cyclic peptides of protein X5 of SARS-CoV Urbani / Binding of serum 6 to linear peptides of protein N of SARS-CoV Urbani / Binding of serum 37 to linear peptides of protein N of SARS-CoV Urbani / Binding of serum 6 to linear peptide (PEPSCAN-ELISA) / Binding of serum 1a to looped/cyclic peptides of protein N of SARS-CoV Urbani / Binding of serum 1b to looped/cyclic peptides of protein N of SARS-CoV Urbani / Binding of serum 2 to looped/cyclic peptides of protein N of SARS-CoV Urbani / Binding of serum 6 to looped/cyclic peptides of protein N of SARS-CoV Urbani / Binding of serum 37 to looped/cyclic peptides of protein N of SARS-CoV Urbani / Binding of serum 62 to looped/cyclic peptides of protein N of SARS-CoV Urbani / Binding of serum London to looped/cyclic peptides of protein N of SARS-CoV Urbani / Binding of serum SARS-green to looped/cyclic peptides of protein N of SARS-CoV Urbani: unit not given here.

The test system of assay [2] is rabbit serum obtained by immunizing a rabbit with the SARS-CoV strain Frankfurt 1. It is filed as binding. On the set-up: Binding of a rabbit serum to linear peptides / Binding of a rabbit serum to looped peptides / Rabbit serum linear peptides / Rabbit serum looped peptides / Binding of a rabbit serum to linear peptides of protein N of SARS-CoV Urbani (Rabbit serum linear peptides) / Binding of a rabbit serum to looped/cyclic peptides of protein N of SARS-CoV Urbani (Rabbit serum looped peptides): unit not given here.

In assay [3] the test system is control sera (pooled serum of ten healthy LUMC hospital workers; commercial negative donor pooled serum from the Dutch bloodbank). In kind it is binding, human. Set-up: Binding of Control serum LUMC to linear peptides / Binding of Control serum Blood-bank to linear peptides / Binding of Control serum LUMC to looped peptides / Binding of Control Serum Blood-Bank to Looped peptides / Binding of Control serum LUMC to linear peptides of the protein M of SARS-CoV Urbani / Binding of Control serum Blood-bank to linear peptides of the protein M of SARS-CoV Urbani / Binding of Control serum LUMC to looped peptides of the protein M of SARS-CoV Urbani / Binding of Control Serum Blood-Bank to Looped peptides of the protein M of SARS-CoV Urbani: unit not given here.

On to FVASFRLFARTRSMW, for which, in assay [1], the “Binding of serum 1a to linear peptides of protein M of SARS-CoV Urbani” value worked out at 0.9, the “Binding of serum 1b to linear peptides of protein M of SARS-CoV Urbani” value is on record as 1.1, the “Binding of serum 2 to linear peptides of protein M of SARS-CoV Urbani” value amounted to 0.7 and the “Binding of serum 6 to linear peptides of protein M of SARS-CoV Urbani” value was 1.3. For the same sequence, in assay [1], the “Binding of serum 37 to linear peptides of protein M of SARS-CoV Urbani” value worked out at 0.6, the “Binding of serum 62 to linear peptides of protein M of SARS-CoV Urbani” value is 0.6, the “Binding of serum London to linear peptides of protein M of SARS-CoV Urbani” value was found to be 0.9 and the “Binding of serum SARS-green to linear peptides of protein M of SARS-CoV Urbani” value worked out at 0.7. Besides, in assay [1], the “Binding of serum SARS-yellow to linear peptides of protein M of SARS-CoV Urbani” value came out at 0.3; the “Recognition of the peptide by sera of SARS-CoV infected individuals, and form (linear, looped/cyclic) in which it is recognized” value is reported as “recognized in looped/cyclic form”. For the same sequence, in assay [2], the “Rabbit serum linear peptides” value was 0.2 and the “Rabbit serum looped peptides” value turned out to be 0.3. Also, in assay [3], the “Binding of Control Serum Blood-Bank to Looped peptides of the protein M of SARS-CoV Urbani” value was 0.6, the “Binding of Control serum Blood-bank to linear peptides of the protein M of SARS-CoV Urbani” value worked out at 0.9, the “Binding of Control serum LUMC to linear peptides of the protein M of SARS-CoV Urbani” value is 1.0 and the “Binding of Control serum LUMC to looped peptides of the protein M of SARS-CoV Urbani” value was determined as 0.7.

Consider FVTIYSHLLLVAAGM, for which, in assay [1], the “Binding of serum 1a to linear peptides of protein X1 of SARS-CoV Urbani” value turned out to be 0.7, the “Binding of serum 1a to looped/cyclic peptide (PEPSCAN-ELISA)” value is recorded as 0.5, the “Binding of serum 1b to linear peptides of protein X1 of SARS-CoV Urbani” value turned out to be 0.5 and the “Binding of serum 1b to looped/cyclic peptide (PEPSCAN-ELISA)” value was 0.3. For the same sequence, in assay [1], the “Binding of serum 2 to linear peptides of protein X1 of SARS-CoV Urbani” value was 0.6, the “Binding of serum 2 to looped/cyclic peptide (PEPSCAN-ELISA)” value is given as 0.3, the “Binding of serum 6 to linear peptides of protein X1 of SARS-CoV Urbani” value is 0.4 and the “Binding of serum 6 to looped/cyclic peptide (PEPSCAN-ELISA)” value is 0.3. Also, in assay [1], the “Binding of serum 37 to linear peptides of protein X1 of SARS-CoV Urbani” value came to 0.5, the “Binding of serum 37 to looped/cyclic peptide (PEPSCAN-ELISA)” value was 0.5, the “Binding of serum 62 to linear peptides of protein X1 of SARS-CoV Urbani” value was 0.5 and the “Binding of serum 62 to looped/cyclic peptide (PEPSCAN-ELISA)” value came out at 0.5. In assay [1], the “Binding of serum London to linear peptides of protein X1 of SARS-CoV Urbani” value was 0.2, the “Binding of serum London to looped/cyclic peptide (PEPSCAN-ELISA)” value was determined as 0.2, the “Binding of serum SARS-green to linear peptides of protein X1 of SARS-CoV Urbani” value was determined as 0.3 and the “Binding of serum SARS-green to looped/cyclic peptide (PEPSCAN-ELISA)” value amounted to 0.2. For the same sequence, in assay [1], the “Binding of serum SARS-yellow to linear peptides of protein X1 of SARS-CoV Urbani” value was 0.5 and the “Binding of serum SARS-yellow to looped/cyclic peptide (PEPSCAN-ELISA)” value is 0.3. In assay [2], the “Binding of a rabbit serum to linear peptides” value was 0.1 and the “Binding of a rabbit serum to looped peptides” value came to 0.5. Moreover, in assay [3], the “Binding of Control Serum Blood-Bank to Looped peptides” value was 0.6, the “Binding of Control serum Blood-bank to linear peptides” value worked out at 0.6, the “Binding of Control serum LUMC to linear peptides” value is recorded as 0.5 and the “Binding of Control serum LUMC to looped peptides” value worked out at 0.5.

On to GALIARCWYLHEGHQ, for which, in assay [1], the “Binding of serum 1a to linear peptides of protein X5 of SARS-CoV Urbani” value is 0.7, the “Binding of serum 1a to looped/cyclic peptides of protein X5 of SARS-CoV Urbani” value came out at 0.4, the “Binding of serum 1b to linear peptides of protein X5 of SARS-CoV Urbani” value amounted to 0.6 and the “Binding of serum 1b to looped/cyclic peptides of protein X5 of SARS-CoV Urbani” value was found to be 0.4. In assay [1], the “Binding of serum 2 to linear peptides of protein X5 of SARS-CoV Urbani” value worked out at 0.6, the “Binding of serum 2 to looped/cyclic peptides of protein X5 of SARS-CoV Urbani” value is 0.7, the “Binding of serum 6 to linear peptides of protein X5 of SARS-CoV Urbani” value is recorded as 0.7 and the “Binding of serum 6 to looped/cyclic peptides of protein X5 of SARS-CoV Urbani” value is given as 0.3. Moreover, in assay [1], the “Binding of serum 37 to linear peptides of protein X5 of SARS-CoV Urbani” value is on record as 0.7, the “Binding of serum 37 to looped/cyclic peptides of protein X5 of SARS-CoV Urbani” value is on record as 0.4, the “Binding of serum 62 to linear peptides of protein X5 of SARS-CoV Urbani” value is 0.7 and the “Binding of serum 62 to looped/cyclic peptides of protein X5 of SARS-CoV Urbani” value came out at 0.3. In assay [1], the “Binding of serum London to linear peptides of protein X5 of SARS-CoV Urbani” value is on record as 0.6, the “Binding of serum London to looped/cyclic peptides of protein X5 of SARS-CoV Urbani” value is 0.1, the “Binding of serum SARS-green to linear peptides of protein X5 of SARS-CoV Urbani” value is given as 0.6 and the “Binding of serum SARS-green to looped/cyclic peptides of protein X5 of SARS-CoV Urbani” value is 0.8. For the same sequence, in assay [1], the “Binding of serum SARS-yellow to linear peptides of protein X5 of SARS-CoV Urbani” value is given as 0.1 and the “Binding of serum SARS-yellow to looped/cyclic peptides of protein X5 of SARS-CoV Urbani” value stood at 0.3. In addition, in assay [2], the “Rabbit serum linear peptides” value turned out to be 0.6 and the “Rabbit serum looped peptides” value came to 0.0. In assay [3], the “Binding of Control Serum Blood-Bank to Looped peptides” value was found to be 0.3, the “Binding of Control serum Blood-bank to linear peptides” value is listed as 0.6, the “Binding of Control serum LUMC to linear peptides” value is 0.4 and the “Binding of Control serum LUMC to looped peptides” value was 0.2.

Take GKVLPFHRWHTMVQT: in assay [1], the “Binding of serum 1a to linear peptides of protein X5 of SARS-CoV Urbani” value is recorded as 0.8, the “Binding of serum 1a to looped/cyclic peptides of protein X5 of SARS-CoV Urbani” value is listed as 0.8, the “Binding of serum 1b to linear peptides of protein X5 of SARS-CoV Urbani” value turned out to be 0.0 and the “Binding of serum 1b to looped/cyclic peptides of protein X5 of SARS-CoV Urbani” value came to 0.5. In addition, in assay [1], the “Binding of serum 2 to linear peptides of protein X5 of SARS-CoV Urbani” value is on record as 0.6, the “Binding of serum 2 to looped/cyclic peptides of protein X5 of SARS-CoV Urbani” value is 0.6, the “Binding of serum 6 to linear peptides of protein X5 of SARS-CoV Urbani” value is 0.3 and the “Binding of serum 6 to looped/cyclic peptides of protein X5 of SARS-CoV Urbani” value is 0.4. Besides, in assay [1], the “Binding of serum 37 to linear peptides of protein X5 of SARS-CoV Urbani” value turned out to be 0.5, the “Binding of serum 37 to looped/cyclic peptides of protein X5 of SARS-CoV Urbani” value is 0.6, the “Binding of serum 62 to linear peptides of protein X5 of SARS-CoV Urbani” value came to 0.8 and the “Binding of serum 62 to looped/cyclic peptides of protein X5 of SARS-CoV Urbani” value turned out to be 0.5. For the same sequence, in assay [1], the “Binding of serum London to linear peptides of protein X5 of SARS-CoV Urbani” value amounted to 0.8, the “Binding of serum London to looped/cyclic peptides of protein X5 of SARS-CoV Urbani” value was determined as 0.3, the “Binding of serum SARS-green to linear peptides of protein X5 of SARS-CoV Urbani” value is recorded as 0.3 and the “Binding of serum SARS-green to looped/cyclic peptides of protein X5 of SARS-CoV Urbani” value is 0.5. Besides, in assay [1], the “Binding of serum SARS-yellow to linear peptides of protein X5 of SARS-CoV Urbani” value was found to be 0.1 and the “Binding of serum SARS-yellow to looped/cyclic peptides of protein X5 of SARS-CoV Urbani” value is listed as 0.4. Further, in assay [2], the “Rabbit serum linear peptides” value turned out to be 0.0 and the “Rabbit serum looped peptides” value turned out to be 0.3. In assay [3], the “Binding of Control Serum Blood-Bank to Looped peptides” value turned out to be 0.5, the “Binding of Control serum Blood-bank to linear peptides” value worked out at 0.6, the “Binding of Control serum LUMC to linear peptides” value is 0.3 and the “Binding of Control serum LUMC to looped peptides” value was 0.5.
